This is an account of results in US20170016037A1, “Method for Increasing the Solubility of Methionine by Mineral Addition and Acid Treatment” (CJ CHEILJEDANG CORPORATION, priority 2009, published 2017).

Where two headings read alike, the source gives them in different places.

For data set [1] the following is noted: cited from earlier work.
For data set [2] the following is noted: cited from earlier work; for solubility in the aqueous solution: generally.
For data set [3] the following is noted: pH 2; cited from earlier work.

Take `CSCCC(N)C(=O)O` (racemic) [DL-methionine]: the “solubility of DL-methionine with use of mineral” value in data set [1] (U.S. Pat. No. 5,430,164, mineral) is listed as “up to 12 % (w/v)”. Moreover, the “result of the same experiment using DL-methionine” value reads like this: (as Example 1 (manganese sulfide, 0.1 M sulfuric acid; 50% solution), DL-methionine 99% Sigma) “identical results”; (as Example 2 (zinc sulfide, 0.1 M sulfuric acid; 50% solution)) “identical results”; (as Example 3 (3.75% minerals, 0.1 M sulfuric acid; 50% solution)) “identical results”; (as Example 4 (1.88% minerals, 0.1 M sulfuric acid; 50% solution)) “identical results”. The “solubility in the aqueous solution” value in data set [2] was “about 5 % (w/v)”. In data set [3], the “solubility of DL-methionine with acid treatment” value is 18 % (w/v).
For the compound `CSCC[C@H](N)C(=O)O` (racemic) [methionine], the “maximum methionine solution concentration” value in data set [1] (U.S. Pat. No. 5,430,164, total 3.5 to 3.9 M minerals (3.35 M zinc sulfate, 0.167 to 0.569 M ferric chloride), 1 L) is given as ≤ 50%. Further, the “methionine solubility maximized by combination of mineral addition and acid addition” value (summary statement, mineral amount less than 15% of the method used before) is given as 50%. In addition, the “solubility of methionine in water” value in data set [2] (room temperature, generally known) was 50 to 55 mg/mL.
On to `CSCC[C@H](N)C(=O)O` [L-methionine], for which the methionine solution concentration (L-methionine crystal powder purified to 99% or more from fermentation/enzymatic conversion solution, same manner as Examples 1 to 4) is ≥ 50%. Moreover, the “solubility of L-methionine” value (L-methionine-containing solution produced by fermentation and enzymatic conversion reaction) is on record as “up to 35%”. For the same compound, in data set [2], the “solubility in the aqueous solution” value is “about 5 % (w/v)”.
